Test results as given in a melting point compilation (Tetko et al.; mined from patent text by program, amines drawn as free bases though some values may be those of a salt).

| SMILES | melting point [°C] |
| --- | --- |
| CC(C)(C)NCC(O)COc1cccc(NC(N)=O)c1C(N)=O (stereo not given) | 189 to 191 |
| C#CC(C)(O)C1CCC2C3CCC4CC(F)CCC4(C)C3CCC21C (stereo not given) | 230 to 231 |
| O=S1(=O)c2ccccc2Nc2c1c(O)c(O)c1ccccc21 | 330 |
| COc1cccc(C(N)=O)c1SSc1c(OC)cccc1C(N)=O | 188 to 189 |
| COC(=O)c1cc(S(C)(=O)=O)ccc1OC1CCOC1=O (stereo not given) | 102 to 105 |
| Nc1ccc(-c2cn(CCF)nn2)cc1 | 79 to 82 |
| NNC(=S)NCC1CC(c2ccc(Cl)cc2)=NO1 (stereo not given) | 115 to 117 |
| CC(=O)OCC1OC(n2c(Br)c(C#N)c3cc(Cl)c(Cl)cc32)C(O)C1O (stereo not given) | 103 to 105 |
| COc1c(N)cc(C(=O)O)cc1S(N)(=O)=O | 210 |
| FC(F)C(Cl)=NC(c1ccccc1)(c1ccccc1)c1ccccc1 | 154 to 156 |
| Cc1nc(N)c2ncn(N(C)C)c2c1C | 205 to 207 |
| O=c1ccc2c(-n3cnc([N+](=O)[O-])c3)nccc2[nH]1 | 298 to 300 |
| Cc1cccc(Nc2cc(Cl)nc(SCC(=O)O)n2)c1C | 146 to 151 |
| CC1(C)CNS(=O)(=O)N1 | 80 to 83 |
| CNC1=Nc2ccccc2C(O)(c2ccccc2)C1(C)C (stereo not given) | 192 to 194 |
| O=C1C(=O)c2ccccc2C2=C1SCC1(CCN(S(=O)(=O)c3cccs3)CC1)O2 | 245 to 248 |
| O=c1oc2ccccc2c(=O)n1OS(=O)(=O)C(F)(F)F | 74 to 76 |
| CCn1ncc2c1ncc1c(OCCC(C)C)nc3cc(C)nn3c12 | 60 to 62 |
| Clc1ccc(COCCOc2ccc(-c3ccccc3)cc2)cc1 | 85 to 87 |
| NCC1Cc2cc(-c3ccccc3)cc(-c3cccc(F)c3)c2O1 (stereo not given) | > 250 |

| SMILES | melting point [°C] |
| --- | --- |
| COc1ccc(OC)c2c1C=C(C(=O)O)CC2 | < 220 |
| CCCCCCCCCCCCC#CC(F)(CCCCC(=O)O)CCCCC(=O)O | 98 to 100 |
| CC(C)(CN(Cc1ccccc1)C(=O)CCC(=O)O)SN=O | 95 to 98 |
| CCOC(=O)N1c2ccc(C(F)(F)F)cc2[C@@H](NC(=O)OC)C[C@H]1CC | 157 to 158 |
| COc1ccc(OC)c(S(=O)(=O)NC(=O)C(C)Br)c1 (stereo not given) | 116 to 118 |
| COc1ccc(CC(=O)NC(NC(=NC#N)Nc2cc(Cl)ccc2F)C(C)(C)C)cc1OC (stereo not given) | 187 to 188 |
| ClCc1ccc2ccc3cccc4ccc1c2c34 | 146 to 148 |
| COc1cc2c(cc1Br)-c1c(-c3cccs3)c3c(n1CC2)C(=O)N(C)C(C)(C)CC3 | 173 to 175 |
| CN(C)C1(Cc2ccccc2)CCC(O)(c2cc3ccccc3o2)CC1 (stereo not given) | 121 to 124 |
| Nc1c(F)cc(C=O)c(F)c1Br | 132 to 133 |
| N#Cc1cccc2c1OCCN2 | 79 to 80 |
| CS(=O)(=O)c1ccc(-c2oc(C(F)F)cc(=O)c2-c2ccc(Cl)cc2)cc1 | 168 to 170 |
| c1ccc2cc(NC3=NCC4(CN5CCC4CC5)O3)ncc2c1 (stereo not given) | 196 to 200 |
| O=C(Cl)c1cc(Br)c(C(=O)Cl)cc1Br | 80 to 82 |
| CS(=O)c1nnc2c3ccccc3c(-c3ccccc3)nn12 (stereo not given) | 215 to 217 |
| CC(=O)OC(C(C(=O)C(C)(C)C)n1cncn1)C(Cl)(Cl)Cl (stereo not given) | 115 to 119 |
| CCOC(=O)c1cn(Cc2ccc(Oc3ccccc3)cc2)nc1OCc1ccc(OCc2nc(-c3ccccc3)oc2C)c(OC)c1 | 127 to 128 |
| CC(C)(C)c1cc(CCc2ccccc2NC(=O)NC23CC4CC(CC(C4)C2)C3)cc(C(C)(C)C)c1O | 197 to 199 |
| CCCCc1c(C(=O)c2ccc(OC)cc2)c2cc([N+](=O)[O-])ccc2n1C | 168 |
| CCCOc1cccc(C2(c3cc(C(=O)CC)n(CC)c3)N=C(N)N(C)C2=O)c1 (stereo not given) | 95 |

| SMILES | melting point [°C] |
| --- | --- |
| CCCCCCCCCCCCCCCCCC(=O)N1CC1C#N (stereo not given) | 85 to 88 |
| CN(C(=O)CNC(=O)OC(C)(C)C)c1ccc(OCC(=O)O)cc1 | 146 to 155 |
| CC(=O)Nc1ccc2c(c1)N1CCN=C1S2 | 268 |
| CCOC(=O)c1cn(CC)c2cc(-c3cc(C)nc(C)c3)c(F)cc2c1=O | 221 to 224 |
| CCC1(CC)NC(=O)C(CC)(CC)N1OC(C)(C)C#N | 125 to 130 |
| CCCCn1nc2c(N)nc3ccccc3c2c1CCS(=O)(=O)CCC | 169 to 171 |
| CC(=O)C=CC=Cc1ccc(OCc2ccccc2)cc1 | 132 to 133 |
| Cn1nnc(-c2ccc(CNc3n[nH]c4ncnc(Nc5cccc(Cl)c5)c34)cc2)n1 | 232 to 235 |
| Oc1noc2ccc(Cl)cc12 | 219 to 222 |
| O=[N+]([O-])c1cc(Cl)cc(C(Cl)c2cc(Cl)cc([N+](=O)[O-])c2O)c1O | 180 |
| COc1cc(Nc2nccc(C(C)(C)C)n2)cc(OC)c1OC | 122 |
| Cc1oc2c(C)cc(C3CC(=O)OC(=O)C3)cc2c1C | 170 |
| CCOC(=O)C=Cc1cccc(Cl)c1Cl | 69 to 70 |
| O=c1[nH]nc2ccc(-c3ccc(Cl)c(Cl)c3)nn12 | 336 to 338 |
| CC1C(=O)Nc2c(Oc3ccccc3Cl)cccc21 (stereo not given) | 138 to 139 |
| CCC(O)(c1ccc(OCc2cccc(C)n2)cc1)c1ccccc1C(F)(F)F (stereo not given) | 128 to 129 |
| O=[N+]([O-])c1ccc(NS(=O)(=O)c2ccc(Cl)c(Cl)c2)c(Cl)c1 | 199 to 201 |
| FC(F)(F)CNC1=NN(c2ccc(Cl)c(Cl)c2)CC1 | 93 to 94 |
| O=S1(=O)N[C@@H](c2cccc(Br)c2)c2ccccc21 | 163 |
| CNC(=O)Cc1ccc(O)cc1 | 124 to 125 |

The next lines start with the values.

| melting point [°C] | SMILES |
| --- | --- |
| 125 | CCCC1=C(C(=O)OCC)C(c2sccc2C)c2c[nH]nc2N1 (stereo not given) |
| 214 | O=C(Cc1noc2ccccc12)N[C@H]1CC[C@H](CCN2CCC(c3cccc4c3CCO4)CC2)CC1 |
| 230 to 232 | COCCOc1cc(NS(=O)(=O)c2ccccn2)c2[nH]c(C(=O)O)cc2c1 |
| 177 to 180 | CNC(=O)c1ccc(C)c(-n2c(C)cc(OCc3ccc(F)cc3CNC(=O)Nc3cc(C(C)(C)C)nn3-c3ccc(O)c(Cl)c3)c(Cl)c2=O)c1 |
| 217 to 218 | Cc1c(C(=O)Nc2ccc(N3CCCCC3)c(C#N)c2)cnn1C |
| 182 | Cc1ccc(-c2cc(C(F)(F)F)n3ncc(-c4cccnc4)c3n2)cc1C(F)(F)F |
| 147 to 149 | CCOC(=O)c1ccc(NC(=O)Nc2c(OC)ccc3c2C(C)(C)COC3(C)C)cc1 |
| 118 | CC(C)c1cccc(C(C)C)c1NC(=O)Nc1ccccc1C(=O)NC1CCN(C(c2ccccc2)c2ccccc2)CC1 |
| 166 to 167 | CN(C1CCN(CCCC(F)(F)F)CC1)S(=O)(=O)c1ccc(Nc2nccc(Nc3ccc(F)cc3)n2)cc1 |
| 276 to 277 | CCn1cc(C(=O)O)c(=O)c2cc(F)c(N3CCN(S(=O)(=O)c4ccc(NC(C)=O)cc4)CC3)c(F)c21 |
| 220 to 223 | O=C(NCCN1CCN=C1c1ccccn1)Nc1ccc(C(=O)O)cc1 |
| 85 to 87 | COc1ccc(C(C)=Cc2ccncc2)c2c1OC1(CCCC1)C2 |
| 74 to 75 | CCOC(=O)c1cn(-c2ccc(C(F)(F)F)cc2)nc1C(C)C |
| > 260 | O=C(c1ccc2ncccc2c1)c1ccc2[nH]c(=O)nc(-c3cccc(Cl)c3)c2c1 |
| 172 to 174 | CC(CO)(CO)NS(=O)(=O)c1cccc(C#Cc2cnn3c(C(F)F)cc(-c4ccc(C(F)(F)F)cc4)nc23)c1 |
| 109 to 110 | CCCc1c(OCCCOc2ccc3c(c2CCC)OC(CCC(=O)O)CC3)ccc(C(C)=O)c1O (stereo not given) |
| 145 to 146 | CCOC(=O)/C=C/c1c(-c2ccccc2)c2c3ccccc3ccn2c1C(C)C |
| 125 to 127 | O=C(NC(Cc1ccccc1)C(=O)O)c1cc2cc(F)ccc2[nH]1 (stereo not given) |
| 108 to 110 | O=C1c2ccccc2C(=O)N1CCCN1CCC(=C(c2ccccc2)c2ccccc2)CC1 |
| 200 to 202 | O=C1NC(=O)C(Cc2ccc(OCCn3ccc4cccnc43)cc2)S1 (stereo not given) |

| melting point [°C] | SMILES |
| --- | --- |
| 92.7 | O=C(c1cccc(Cl)c1)c1ccnc2ccccc12 |
| 145 to 146 | O=C(COc1ccc(CCC(=O)C(F)(F)F)cc1)NC(c1ccc(Cl)cc1)c1ccc(Cl)cc1 |
| 81 to 82 | COc1cc(C(=O)CCCc2ccccc2)ccc1OCc1ccccc1 |
| 68 to 70 | O=C(c1ccccc1)N1CCC(CCl)CC1 |
| 138 to 139 | COC(=O)c1cc(-c2ccc(F)c(C)c2)nn(CC=Cc2ccc(Cl)cc2)c1=O |
| 198 to 201 | COc1ccc(C2=NN(c3ccc(C4=NNC(=O)CC4C)cc3)C(=O)C3CC=CCC23)cc1Cl (stereo not given) |
| 81 to 83 | Cc1ccc(S(=O)(=O)OCCC2CCN(C(=O)c3ccccc3)CC2)cc1 |
| 159 to 162 | N#Cc1cccc(NC(C(=O)O)c2ccccc2)c1 (stereo not given) |
| 129 to 130 | Cc1cc(SC(C)C)c(NC(=O)CCCCSc2nc3ccccc3o2)c(SC(C)C)n1 |
| 222 to 223 | CCOC(=O)c1csc(NC(=O)C(CC2CCCC2)c2ccc(NC(=O)c3cccnc3)cc2)n1 (stereo not given) |
| 199 to 205 | NC(=O)NC1CCC(OC(=O)c2ccccc2)c2sccc21 (stereo not given) |
| 191 | Cc1c(C(=O)Nc2ccc(N3CCN(CCO)CC3)c(C#N)c2)cnn1-c1ccc(F)c(Cl)c1 |
| 124 to 127 | CCOC(=O)c1cc(=O)c2cccc(COc3ccc(OCc4ccc5ccccc5n4)cc3)c2o1 |
| 154 to 155 | Cc1cc(=O)n2cccc(OCC=Cc3ccccc3)c2n1 |
| 127 to 129 | COC(=O)c1cc2cc(OCCn3ccnc3)ccc2s1 |
| 148 | CCn1cnc2c(Nc3cccc(C(=O)OC)c3)nc(Cl)nc21 |
| 196 to 198 | CCOC(=O)COc1cccc2c1oc1sc(Nc3ccccc3)nc12 |
| 123 to 124 | O=C(CCCc1cccs1)NC(Cc1ccc(C(F)(F)F)cc1)C(=O)c1ccc(F)cc1 (stereo not given) |
| 206 to 208 | O=C1OC2(CCN(C(=O)Nc3cnc(-c4ccccc4)cn3)CC2)c2cc(O)ccc21 |
| 186 | CC1(C)CCC(=O)Nc2ccc(Nc3ncc(Cl)c(Nc4ccccc4-c4ncccn4)n3)cc21 |
